The values below come from patent publication US20160108381A1, “DNA POLYMERASES AND MUTANTS THEREOF” (LIFE TECHNOLOGIES CORPORATION, priority 2001, published 2016).

For data set [1], the target named is T1, Clostridium thermosulfurogenes DNA polymerase, N-terminal His6 tag (Cth-His), SEQ ID NO:15 (Thermoanaerobacterium thermosulfurigenes, UniProt Q6X9R5).
T1 sequence (Q6X9R5 with tags, fused parts or gaps): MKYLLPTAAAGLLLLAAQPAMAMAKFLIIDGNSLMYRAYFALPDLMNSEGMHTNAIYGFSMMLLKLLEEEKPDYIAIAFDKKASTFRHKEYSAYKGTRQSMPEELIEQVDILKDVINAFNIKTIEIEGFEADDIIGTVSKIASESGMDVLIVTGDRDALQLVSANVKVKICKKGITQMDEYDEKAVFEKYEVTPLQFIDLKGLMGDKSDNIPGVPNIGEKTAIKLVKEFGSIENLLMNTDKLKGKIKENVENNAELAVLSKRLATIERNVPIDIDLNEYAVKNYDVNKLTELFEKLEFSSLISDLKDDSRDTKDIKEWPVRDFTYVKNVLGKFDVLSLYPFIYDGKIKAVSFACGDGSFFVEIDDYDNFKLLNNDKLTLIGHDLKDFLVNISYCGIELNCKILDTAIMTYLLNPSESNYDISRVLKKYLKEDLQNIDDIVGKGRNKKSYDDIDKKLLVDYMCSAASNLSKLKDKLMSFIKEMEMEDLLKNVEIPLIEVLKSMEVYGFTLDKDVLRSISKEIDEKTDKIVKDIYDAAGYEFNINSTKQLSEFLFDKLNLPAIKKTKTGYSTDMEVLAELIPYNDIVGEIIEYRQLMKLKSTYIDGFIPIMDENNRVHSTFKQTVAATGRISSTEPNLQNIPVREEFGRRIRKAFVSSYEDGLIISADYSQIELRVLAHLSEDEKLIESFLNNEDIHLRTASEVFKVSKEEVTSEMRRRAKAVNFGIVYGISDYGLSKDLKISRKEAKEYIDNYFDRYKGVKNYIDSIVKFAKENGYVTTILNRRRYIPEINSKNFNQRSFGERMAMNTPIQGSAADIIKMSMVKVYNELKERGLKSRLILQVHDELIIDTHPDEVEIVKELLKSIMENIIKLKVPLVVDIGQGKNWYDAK
Description: Steady-state kinetics, DNA- and RNA-dependent polymerase activity. The note with it: Table 34, DNA template, 2 mM MgCl2, 45 °C per footnote. An excerpt: (§1) Subcloning of genes for Cst and Cth DNA polymerases. In order to improve expression and simplify purification of Cst and Cth DNA polymerase, the genes were subcloned downstream of a T7 promoter and an amino-terminal His6 tag sequence was introduced using Gateway cloning technology (Invitrogen Corporation, Carlsbad, Calif.). The sequence of the DNA oligonucleotide used at the 5′ end of the Cst gene was: 5′-[…] ATAGAC 3′ (SEQ ID NO:37). The sequence of the DNA oligonucleotide used at the 5′ end of the Cth gene was: 5′-[…] […]-3′ (SEQ ID NO:38). The sequence of the DNA oligonucleotide used at the 3′ end of each gene was the same: 5′-[…] […] 3′ (SEQ ID NO:39). Purified pET26B plasmid DNA (Novagen Inc., Madison, Wis.) bearing the gene for Cst or Cth DNA polymerase was amplified by PCR utilizing the primers listed above and Platinum Taq HiFi DNA polymerase (Invitrogen Corporation, Carlsbad, Calif.). PCR products purified by agarose gel electrophoresis were cloned into Gateway vector pDON21 and transferred by recombination into vector pDEST17. […] Each final recombinant plasmid was transformed into the E. coli expression host BL21-AI (Invitrogen Corporation, Carlsbad, Calif.).
(§2) Purification of Cst-His and Cth-His DNA polymerases. E. coli cells (BL21AI) bearing the plasmid pDEST17 with the gene for Cst-His or Cth-His DNA polymerase were grown in 2.8-1 Fembach flasks in LB broth containing 50 μg/ml ampicillin at 37° C. After the culture reached an A590 of 1.0, expression of DNA polymerase was induced by the addition of 0.2% arabinose for 3 hr. Cells were harvested by centrifugation and stored at −70° C.
(§3) Steady-state kinetic measurements.
(§4) The assays were conducted in the presence of 1.5 mM MgCl2 at 55° C. for all enzymes except the Caldibacillus cellulovorans CompA.2 enzyme where 2 mM MgCl2 and 45° C. were used.

For data set [2], the target named is T2, Clostridium stercorarium DNA polymerase, N-terminal His6 tag (Cst-His), SEQ ID NO:14 (Thermoclostridium stercorarium, UniProt L7VMI6).
T2 sequence (L7VMI6 with tags, fused parts or gaps): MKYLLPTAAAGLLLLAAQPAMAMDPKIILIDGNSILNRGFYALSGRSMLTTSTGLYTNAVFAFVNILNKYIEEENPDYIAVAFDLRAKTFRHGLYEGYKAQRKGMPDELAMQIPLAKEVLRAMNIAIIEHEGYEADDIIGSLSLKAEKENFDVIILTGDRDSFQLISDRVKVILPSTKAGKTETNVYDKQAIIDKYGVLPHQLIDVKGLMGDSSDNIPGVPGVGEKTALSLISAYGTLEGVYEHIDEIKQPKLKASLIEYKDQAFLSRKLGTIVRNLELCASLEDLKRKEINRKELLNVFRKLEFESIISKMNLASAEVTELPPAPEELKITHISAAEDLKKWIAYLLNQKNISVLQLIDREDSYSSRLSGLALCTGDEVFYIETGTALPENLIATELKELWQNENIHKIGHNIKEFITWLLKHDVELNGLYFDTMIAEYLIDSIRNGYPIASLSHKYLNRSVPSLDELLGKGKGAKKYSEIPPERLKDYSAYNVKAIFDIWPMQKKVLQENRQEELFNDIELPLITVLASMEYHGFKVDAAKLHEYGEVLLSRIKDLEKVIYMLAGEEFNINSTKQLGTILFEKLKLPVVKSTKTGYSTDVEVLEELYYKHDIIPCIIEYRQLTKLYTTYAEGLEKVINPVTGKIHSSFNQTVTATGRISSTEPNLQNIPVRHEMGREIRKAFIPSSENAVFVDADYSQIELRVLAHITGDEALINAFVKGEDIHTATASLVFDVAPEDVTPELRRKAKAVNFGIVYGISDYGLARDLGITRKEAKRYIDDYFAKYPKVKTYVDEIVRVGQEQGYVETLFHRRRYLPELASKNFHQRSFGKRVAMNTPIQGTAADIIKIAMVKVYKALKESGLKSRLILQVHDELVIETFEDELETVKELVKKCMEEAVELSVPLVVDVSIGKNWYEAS
The description is as above. The note with it: Table 34, DNA template, 2 mM MgCl2, 45 °C per footnote.
Excerpt: as §1, §2, §3, §4

For data set [3], the target named is T3, Thermotoga neapolitana (Tne) DNA polymerase, mutated to eliminate 3′ to 5′ and 5′ to 3′ exonuclease activity (Thermotoga neapolitana, UniProt B9K7T2).
T3 construct: mutated to eliminate 3'-5' and 5'-3' exonuclease activity as in US 6,306,588 (recalled, unsure: D137A and D323A)
T3 sequence (B9K7T2 entry or part of it, stated change not applied): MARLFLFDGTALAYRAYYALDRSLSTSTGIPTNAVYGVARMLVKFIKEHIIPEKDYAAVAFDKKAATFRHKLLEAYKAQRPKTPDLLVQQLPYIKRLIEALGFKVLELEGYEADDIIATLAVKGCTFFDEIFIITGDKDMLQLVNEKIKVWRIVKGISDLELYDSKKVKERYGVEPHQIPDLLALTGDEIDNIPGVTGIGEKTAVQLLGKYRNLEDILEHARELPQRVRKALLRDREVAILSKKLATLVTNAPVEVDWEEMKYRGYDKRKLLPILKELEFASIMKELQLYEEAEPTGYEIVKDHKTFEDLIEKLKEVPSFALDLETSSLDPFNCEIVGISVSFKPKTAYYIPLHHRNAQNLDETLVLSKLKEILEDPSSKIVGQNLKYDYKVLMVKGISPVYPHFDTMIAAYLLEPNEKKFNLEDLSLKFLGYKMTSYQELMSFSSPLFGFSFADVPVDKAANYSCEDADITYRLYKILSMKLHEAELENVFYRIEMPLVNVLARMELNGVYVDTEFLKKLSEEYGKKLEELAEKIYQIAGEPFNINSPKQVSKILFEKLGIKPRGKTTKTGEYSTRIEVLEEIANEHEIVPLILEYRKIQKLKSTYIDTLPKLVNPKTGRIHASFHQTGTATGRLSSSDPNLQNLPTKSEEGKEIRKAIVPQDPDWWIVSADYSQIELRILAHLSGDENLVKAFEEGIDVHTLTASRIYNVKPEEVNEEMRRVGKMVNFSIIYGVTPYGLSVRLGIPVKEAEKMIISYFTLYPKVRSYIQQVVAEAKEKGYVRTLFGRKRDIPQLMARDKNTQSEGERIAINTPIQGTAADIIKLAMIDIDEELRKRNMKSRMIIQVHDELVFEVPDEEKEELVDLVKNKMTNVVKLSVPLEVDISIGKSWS
The description is as above. It is filed as biochemical. Here is the method: (§5) Thermotoga neapolitana (Tne) DNA polymerase mutated to eliminate 3′ to 5′ and 5′ to 3′ exonuclease activity was cloned, engineered and purified as described in U.S. Pat. No. 6,306,588. SuperScript II reverse transcriptase (SS II RT) was from Invitrogen Corporation, Carlsbad, Calif.
as §3
(§6) The catalytic rate constant kcat and the Michaelis constant KM were determined for both the DNA-dependent and RNA-dependent polymerase activities for the polypeptides of the invention and these parameters were compared to those of Tne DNA polymerase enzyme and […]™ II reverse transcriptase. […]

For data set [4], the target named is SuperScript II reverse transcriptase (SSII, SS II RT), a modified M-MLV reverse transcriptase (Moloney murine leukemia virus isolate Shinnick, UniProt P03355). The data set is described as above. It counts as biochemical. How it is done:
as §5, §3, §6

Substrate in data set [5]: Cc1cn([C@H]2C[C@H](O)[C@@H](COP(=O)(O)OP(=O)(O)OP(=O)(O)O)O2)c(=O)[nH]c1=O
Put plainly: purified protein, by the assay type. The note with it: 55 °C, mean ± SD.

The mark [6] stands for this setting: Table 34, DNA template, 2 mM MgCl2, 45 °C per footnote.
Setting [7] is: read-out: Km DNA (dGTP), Table 34, DNA template, 2 mM MgCl2, 45 °C per footnote.
[8] abbreviates: other: Table 40, (dA)270•(dT)40, dTTP.
Where [9] appears, read: other: Table 40, (rA)250•(dT)30, dTTP.

Turning to `Nc1nc2c(ncn2[C@H]2C[C@H](O)[C@@H](COP(=O)(O)OP(=O)(O)OP(=O)(O)O)O2)c(=O)[nH]1` [dGTP], the “Kcat DNA (dGTP)” value in data set [1] turned out to be 57 s⁻¹; in data set [2] it was 11.5 s⁻¹; in data set [3] (setting [6]), 17.5 s⁻¹; in data set [4] (setting [6]) it was 15.4 s⁻¹. Further, the Km (commonly the substrate concentration at which the rate is half of its maximum) in data set [1] (read-out: Km DNA (dGTP)) was 17.1 µM; in data set [2] (read-out: Km DNA (dGTP)) it was 0.5 µM; in data set [3] (setting [7]), 17.2 µM; in data set [4] (setting [7]) it was 2.4 µM. In addition, the “kCAT DNA-DNA” value is 130 ± 32 s⁻¹ in data set [3] (Table 40, (dC)n•(dG)35, dGTP, 72 °C, mean ± SD) and 16 ± 2 s⁻¹ in data set [4] (Table 40, (dC)n•(dG)35, dGTP, 37 °C, mean ± SD).

B1: Clostridium thermosulfurogenes DNA polymerase, N-terminal His6 tag (Cth-His), SEQ ID NO:15 (Thermoanaerobacterium thermosulfurigenes) (protein)
chain: T1 sequence (Q6X9R5 with tags, fused parts or gaps)
As for B1, the results for the kcat in data set [5] (setting [8]) and in data set [5] (setting [9]) were 28 ± 1 s⁻¹ and 16 ± 1 s⁻¹, respectively.

B2: Clostridium stercorarium DNA polymerase, N-terminal His6 tag (Cst-His), SEQ ID NO:14 (Thermoclostridium stercorarium subsp. stercorarium DSM 8532) (protein)
chain: T2 sequence (L7VMI6 with tags, fused parts or gaps)
Take B2: the values for the kcat in data set [5] (setting [8]) and in data set [5] (setting [9]) were 40 ± 13 s⁻¹ and 88 ± 5 s⁻¹, respectively.
